Source: patent US20020013478A1, “Calanolide analogues and methods of their use” (Sarawak Medichem Pharmaceuticals,Inc., priority 1994, published 2002)
≈ marks a conversion by molar mass, not a printed value. Where two headings read alike, the source gives them in different places.

Assays:
2.2.15 cells = assay: Toxicity in 2.2.15 cells, neutral red dye uptake; type: cell-based, human; conditions: Table II, read-out: HBV IC50
Protocol: Cells of 2.2.15 were grown to confluence in 96-well flat-bottomed tissue culture plates and treated with compounds (in 0.2 mL culture medium/well) as described above. Four concentrations of each compound were assayed, each in triplicate cultures, in 3- to 10-fold steps. Untreated control cultures were maintained on each 96-well plate. On each 96-well plate, wells containing no cells were used to correct for light scattering.

HCMV = HCMV semi-automated CPE-inhibition assay in human foreskin fibroblast cells; type: cell-based, human cytomegalovirus; conditions: Table II
[1] = tested on: human foreskin fibroblast cells; assay: Toxicity run with the HCMV assay, human foreskin fibroblast cells; type: cell-based; conditions: Table II
Protocol: (§1) [table] […] The media from the wells is then aspirated and 2 mL of each drug concentration is then added to each well. The cells are then incubated in a CO2 incubator at 37° C. for 72 h. At the end of this time, the media-drug solution is removed and the cells washed. […] The cell-media mixture is then pipetted up and down vigorously to break up the cell suspension, and 0.2 mL of the mixture is added to 9.8 mL of Isoton III and counted using a Coulter Counter. Each sample is counted three times with three replicate wells per sample. The procedure for plating cells and adding drug is the same as for the MTT Assay. After drug addition, the plates are incubated for seven days in a CO2 incubator at 37° C. […] This is incubated in the CO2 incubator for one hour. The dye is aspirated and the cells are washed using a Nunc Plate Washer. […] The plates are rotated for 15 minutes and the optical densities are read at 550 nm on a plate reader.

EBV = EBV assay: superinfection of Raji or Daudi cells with P3HR-1, immunofluorescence for EA and VCA; type: cell-based, Epstein-Barr virus; conditions: Table II
Excerpt: There are two prototypes of infectious EBV. One is exemplified by the virus derived from supernatant fluids of the P3HR-1cell line. This cell line produces nontransforming virus that causes the production of early antigen (EA) after primary infection or superinfection of B cell lines. The other prototype is exemplified by the B-95-8 virus. This virus immortalized cord blood lymphocytes and induced tumors in marmosets.
The virus used in our assays is P3HR-1.
Ramos is an exceptional B cell line derived from Burkitt's lymphoma tumor but containing no detectable EBV genome copies and is EBNA negative. Ramos/AW was obtained by in vitro infection of Ramos with the P3HR-1 virus and contains one resident EBV genome copy/cell. Raji is a Burkitt's lymphoma cell line containing 60 EBV genomes/cell, and will be the primary cell used for screening antiviral activity against EBV EA expression. Daudi is a low level producer that contains 152 EBV genome copies/cell. It spontaneously expresses EBV EA in 0.25%-0.5% of the cells. It will be used in follow-up studies to confirm activity. These cell lines respond to superinfection by EBV by expressing EA(D), EA(R), and VCA. All cell lines are maintained in RPMI-1640 medium supplemented by 10% FCS, L-glutamine and 100 μg/mL gentamicin. The cultures are fed twice weekly and the cell concentration adjusted to 3×10^5/mL. The cells are kept at 37° C. in a humidified atmosphere with 5% CO2.
Cells are infected with the P3HR-1 strain of EBV and the drugs to be tested are added after adsorption (45 minutes at 37° C.) and washing of the cell cultures. The cultures are incubated for two days in complete medium to allow viral gene expression. Following the 48 hr incubation period, the number of cells of each sample are counted and smears made. Monoclonal antibodies to the different EA components and VCA are then added to the cells incubated and washed. This is followed by a fluorescein conjugated rabbit anti-mouse Ig antibody; and the number of fluorescence positive cells in the smears are counted. The total number of cells in the cultures positive for EA or VCA are then calculated and compared.

Raji or Daudi cells = assay: Toxicity run with the EBV assay; type: cell-based, human; conditions: Table II
Excerpt: IC50 (50% inhibitory concentration) is the concentration required to inhibit cell proliferation by 50%

VZV = VZV plaque reduction assay in human foreskin fibroblast cells; type: cell-based, varicella zoster virus; conditions: Table II
Protocol: Two days prior to use, HFF cells are plated into six-well plates and incubated at 37° C. with 5% CO2 and 90% humidity. On the date of assay, the drug is made up at twice the desired concentration in 2x MEM and then serially diluted 1:5 in 2x MEM using six concentrations of drug. The initial starting concentration is usually 200 gg/mL down to 0.06 μg/mL. The virus to be used is diluted in MEM containing 10% FBS to a desired concentration which will give 20-30 plaques per well. The media is then aspirated from the wells and 0.2 mL of virus is added to each well in duplicate with 0.2 mL of media being added to drug toxicity wells. The plates are then incubated for one hour with shaking every fifteen minutes. After the incubation period, an equal amount of 1% agarose was added to an equal volume of each drug dilution. This will give final drug concentrations beginning with 100 μg/mL and ending with 0.03 μg/mL and a final agarose overlay concentration of 0.5%. The drug agarose mixture is applied to each well in 2 mL volume and the plates then incubated for three days, after which the cells were stained with a 1.5% solution of neutral red. At the end of 4-6hr incubation period, the stain is aspirated, and plaques counted using a stereomicroscope at lOx magnification.
The procedure is essentially the same as for the HSV plaque assay described above with two exceptions:
1. After addition of the drug, the plates are incubated for ten days.
2. On days three and six, an additional 1 mL overlay with equal amounts of 2x MEM and 1% agarose are added.

[2] = tested on: human foreskin fibroblast cells; assay: Toxicity run with the VZV assay, human foreskin fibroblast cells; type: cell-based; conditions: Table II
Protocol: as §1

HBV = HBV replication in cultures of 2.2.15 cells, extracellular HBV virion DNA (primary assay); conditions: read-out: HBV EC50
CEM-SS cells = assay: CEM-SS MTT assay, cytotoxicity (Table I); type: cell-based, human
HIV-1 = conditions: CEM-SS MTT assay

SMILES | IC50 (2.2.15 cells) [µM] | HCMV EC50 (HCMV) [µg/mL] | HCMV IC50 [1] [µg/mL] | EBV EC50 (EBV) [µg/mL] | EBV IC50 (Raji or Daudi cells) [µg/mL] | VZV EC50 (VZV) [µg/mL] | VZV IC50 [2] [µg/mL] | EC50 (HBV; Table II) [µM] | IC50 (CEM-SS cells; Homo sapiens) [µM] | IC50 (2.2.15 cells; Homo sapiens) [µM] | EC50 (HCMV; Human betaherpesvirus 5, Fibroblast) [µg/mL] | IC50 ([1]; Homo sapiens, Fibroblast) [µg/mL] | EC50 (EBV; human gammaherpesvirus 4) [µg/mL] | IC50 (Raji or Daudi cells; Homo sapiens) [µg/mL] | EC50 (VZV; Human alphaherpesvirus 3, Fibroblast) [µg/mL] | IC50 ([2]; Homo sapiens, Fibroblast) [µg/mL] | EC50 (HBV; Hepatitis B virus) [µM] | IC50 (CEM-SS cells) [µM] | Maximum Protection (%) (HIV-1) | EC50 (HIV-1) [µM]
CCCc1cc(=O)oc2c3c(c4c(c12)OC(C)(C)C=C4)OC(C(C)C)C(C)C3=O (racemic) [(+)-15e] | 86 | >20 | 75.3 | >50 | >50 | >100 | >100 | > 10 |  |  |  |  |  |  |  |  |  |  |  | 
CCCc1cc(=O)oc2c3c(c4c(c12)OC(C)(C)C=C4)OC(C)(C)C(C)C3=O (racemic) [(±)-15b, (±)-10,11-Dihydro-6,6,10,10,11-pentamethyl-4-propyl-2H, 6H, 12H-benzo[1,2-b:3,4-b′:5,6-b″]tripyran-2,12-dione] |  |  |  |  |  |  |  |  | 21 | 307 | > 20 | 52.3 (≈ 137 µM) | > 50 | > 50 | > 20 | 66.7 (≈ 174 µM) | > 10 |  |  | 
CCCc1cc(=O)oc2c3c(c4c(c12)OC(C)(C)C=C4)OC(CC)C(C)C3=O (racemic) [(±)-15c, (±)-10,11-trans-10,11-Dihydro-10-ethyl-4-propyl-6,6,11-trimethyl-2H,6H,12H-benzo[1,2-b:3,4-b ″]tripyran-2,12-dione] | 152 | >20 | 77.6 | >50 | >50 | >20 | 68.0 | > 10 |  |  |  |  |  |  |  |  |  | 6.8 | 47 | 
CCCc1cc(=O)oc2c3c(c4c(c12)OC(C)(C)CC4)OC(C)C(C)C3=O (racemic) [(±)-18a, (±)-10,11-trans4-Propyl-7,8,10,11-tetrahydro-6,6,10,11-tetramethyl-2H,6H,12H-benzo [1,2-b:3,4-b′5,6-b″]tripyran-2,12-dione] | 88 | >4.0 | 19.5 | 24.5 | >50 | 15.4 | 33.3 | > 10 |  |  |  |  |  |  |  |  |  | 9.19 | 60 | 2.47
